Source: ChEMBL document CHEMBL3112451, “Synthesis of 2',3',4'-trihydroxyflavone (2-D08), an inhibitor of protein sumoylation” (Bioorg Med Chem Lett, 2014)
Active and inactive are the calls of the source. The calls are words filed in the database; no cut-off is given here.

target: SUMO E1/E2 (Homo sapiens) (UniProt Q9UBE0+Q9UBT2+P63279); assay: Inhibition of purified SUMO E1/E2 (unknown origin)-mediated conjugation of His6-SUMO-1 to fluorescent peptide FL-AR at 30 uM after 90 mins by microfluidic electrophoretic mobility shift assay; format: protein-complex assay

SMILES | inhibition
O=C(/C=C(\O)c1ccccc1O)c1ccc(O)c(O)c1O | Active
O=c1cc(-c2ccc(O)c(O)c2O)oc2ccccc12 | Active
O=c1cc(-c2ccccc2O)oc2c(O)c(O)ccc12 | inactive
